# Source: paper PMC3286601 (Biochemistry, 2012)
# Like-named read-outs stand apart in the source and are kept apart here.
# How the values were obtained:
# [1] = biological target: T1, wild-type Pseudomonas sp. strain CBS3 4-HB-CoA thioesterase (Pseudomonas sp., UniProt P56653); test: Steady-state kinetic constants; format: biochemical; conditions: substrate hydrolysis, pH 7.5, 25 °C
# T1 sequence (P56653 1-141): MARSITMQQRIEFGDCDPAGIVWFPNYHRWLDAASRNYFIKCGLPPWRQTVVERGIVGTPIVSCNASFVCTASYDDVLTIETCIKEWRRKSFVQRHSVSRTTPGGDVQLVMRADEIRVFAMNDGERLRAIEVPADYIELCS
# [2] = biological target: T1, wild-type Pseudomonas sp. strain CBS3 4-HB-CoA thioesterase; test: Ligand binding to wild-type thioesterase by stopped-flow fluorescence quenching; conditions: for kobs (apparent pseudo-first order binding rate constant): 0.54 µM thioesterase; for koff: read-out: koff (dissociation rate constant); for kon: read-out: kon (association rate constant)
# [3] = biological target: D17N thioesterase; conditions: inert D17N thioesterase complex, steady-state fluorescence quenching; ref [5]; cited from earlier work
# [4] = biological target: T1, wild-type Pseudomonas sp. strain CBS3 4-HB-CoA thioesterase; test: kcat pH rate profiles in H2O and D2O, solvent kinetic isotope effect on kcat; format: biochemical; conditions: for C1 (pH independent kcat plateau) / C2 (pH independent kcat plateau) / first break in kcat pH profile / second break in kcat pH profile: fit to equation 4
# [5] = biological target: T1, wild-type Pseudomonas sp. strain CBS3 4-HB-CoA thioesterase; test: Steady-state product inhibition of thioesterase-catalyzed hydrolysis of 4-HB-CoA; format: biochemical
# [6] = biological target: T1, wild-type Pseudomonas sp. strain CBS3 4-HB-CoA thioesterase; format: biochemical
# [7] = biological target: T1, wild-type Pseudomonas sp. strain CBS3 4-HB-CoA thioesterase; format: biochemical; remark: listed apart in the source
# [8] = biological target: T1, wild-type Pseudomonas sp. strain CBS3 4-HB-CoA thioesterase; test: Steady-state multiple-turnover time courses; format: biochemical
# [9] = conjugate acid of the CoA thiolate anion leaving group; source not stated; cited from earlier work
smiles,measurement,setting,value
"CC(C)(COP(=O)(O)OP(=O)(O)OC[C@H]1O[C@@H](n2cnc3c(N)ncnc32)[C@H](O)[C@@H]1OP(=O)(O)O)[C@@H](O)C(=O)NCCC(=O)NCCSC(=O)c1ccc(O)cc1 [4-HB-CoA, 4-hydroxybenzoyl-CoA]",steady-state kcat,[1],18 s⁻¹
same,Kd,[2],0.2 µM
same,kobs (apparent pseudo-first order binding rate constant),"[2]; 5.0 µM 4-HB-CoA (b38 prints 4.0 µM), pH 7.5, 25 °C",280 ± 30 s⁻¹
same,koff,[2],13 ± 5 s⁻¹
same,kon,[2],6.5e+07 ± 2e+06 M⁻¹ s⁻¹
same,substrate-binding rate k1,[2]; summary value in Conclusions,~ 70 µM^−1s^−1
same,Kd,[3],0.14 µM
same,pH independent isotope effect from ratio of C1 values,[4]; H2O/D2O,3.8
same,pH independent isotope effect from ratio of C2 values,[4]; H2O/D2O,3.7
same,C1 (pH independent kcat plateau),[4]; buffered D2O,1.3 ± 0.2
same,C2 (pH independent kcat plateau),[4]; buffered D2O,15 ± 1
same,first break in kcat pH profile,[4]; buffered D2O,5.1 ± 0.1
same,second break in kcat pH profile,[4]; buffered D2O,8.0 ± 0.1
same,C1 (pH independent kcat plateau),[4]; buffered H2O,5.0 ± 0.1
same,C2 (pH independent kcat plateau),[4]; buffered H2O,55 ± 4
same,first break in kcat pH profile,[4]; buffered H2O,5.15 ± 0.09
same,second break in kcat pH profile,[4]; buffered H2O,7.70 ± 0.08
same,D2O solvent kinetic isotope effect (SKIE) on kcat,[4]; pH independent,3.7–3.8
"CC(C)(COP(=O)(O)OP(=O)(O)OC[C@H]1O[C@@H](n2cnc3c(N)ncnc32)[C@H](O)[C@@H]1OP(=O)(O)O)[C@@H](O)C(=O)NCCC(=O)NCCSCC(=O)c1ccc(O)cc1 [4-HP-CoA, 4-hydroxyphenacyl-CoA]",Kd,[2],0.33 µM
same,kobs (apparent pseudo-first order binding rate constant),"[2]; 5.3 µM 4-HP-CoA, 50 mM K+HEPES pH 7.5, 25 °C",350 ± 4 s⁻¹
same,koff,[2],20 ± 5 s⁻¹
same,kon,[2],5.9e+07 ± 1e+06 M⁻¹ s⁻¹
"O=C(O)c1ccc(O)cc1 [4-HB, 4-hydroxybenzoate]",Ki,[5],1200 ± 200 µM
"CC(C)(COP(=O)(O)OP(=O)(O)OC[C@H]1O[C@@H](n2cnc3c(N)ncnc32)[C@H](O)[C@@H]1OP(=O)(O)O)[C@@H](O)C(=O)NCCC(=O)NCCS [CoA, coenzyme A]",Ki,[5],250 ± 70 µM
same,Kii (intercept inhibition constant),"[5]; noncompetitive inhibition of 4-HB-CoA hydrolysis, pH 7.5, 25 °C",900 ± 300 µM
same,Kd,[6],300 µM
same,Kd,[7],300 µM
same,Kd,[8],300 µM
same,pKa of the conjugate acid,[9],9.7
